Laboratory results as given in the NIST ThermoML archive (doi:10.1021/acs.jced.6b01043).

Test: relative permittivity at zero frequency (dimensionless); xn = mol fraction of the nth substance listed
Details: Gas, Reentrant cavity resonator

[Ar] [argon] + O=C=O
Details | relative permittivity at zero frequency
255.1 K, 2068.9 kPa, x1 = 0.0505 | 1.02661
260.14 K, 2446.9 kPa, x1 = 0.0505 | 1.03197
266.15 K, 2919.5 kPa, x1 = 0.0505 | 1.03887
271.4 K, 3365.6 kPa, x1 = 0.0505 | 1.04566
273.2 K, 454.8 kPa, x1 = 0.2491 | 1.004
273.2 K, 962.7 kPa, x1 = 0.2491 | 1.0088
273.2 K, 1001.6 kPa, x1 = 0.2491 | 1.0091
273.2 K, 2004.3 kPa, x1 = 0.2491 | 1.0195
273.2 K, 2014.8 kPa, x1 = 0.2491 | 1.0196
273.2 K, 3008.7 kPa, x1 = 0.2491 | 1.0314
273.2 K, 4029 kPa, x1 = 0.2491 | 1.0459
273.2 K, 4487 kPa, x1 = 0.2491 | 1.0535
273.21 K, 506.6 kPa, x1 = 0.2491 | 1.0045
279.73 K, 4266.1 kPa, x1 = 0.0505 | 1.06129
279.73 K, 4267.8 kPa, x1 = 0.0505 | 1.06132
283.23 K, 492.8 kPa, x1 = 0.2491 | 1.0042
283.23 K, 969.4 kPa, x1 = 0.0505 | 1.00945
283.23 K, 4007.7 kPa, x1 = 0.0505 | 1.05273
283.23 K, 4493.9 kPa, x1 = 0.0505 | 1.06407
283.23 K, 6491.3 kPa, x1 = 0.2491 | 1.0858
283.24 K, 1029.9 kPa, x1 = 0.0505 | 1.01008
283.24 K, 2002 kPa, x1 = 0.2491 | 1.0185
283.24 K, 2006.1 kPa, x1 = 0.0505 | 1.0212
283.24 K, 2011.5 kPa, x1 = 0.0505 | 1.02127
283.24 K, 2992.8 kPa, x1 = 0.2491 | 1.0294
283.24 K, 2993.3 kPa, x1 = 0.2491 | 1.0294
283.24 K, 2998.2 kPa, x1 = 0.0505 | 1.03482
283.24 K, 3973.7 kPa, x1 = 0.0505 | 1.05203
283.24 K, 3995.6 kPa, x1 = 0.2491 | 1.042
283.24 K, 4006.4 kPa, x1 = 0.2491 | 1.0421
283.24 K, 4991.8 kPa, x1 = 0.2491 | 1.0568
283.24 K, 5983.5 kPa, x1 = 0.2491 | 1.0748
283.24 K, 5987 kPa, x1 = 0.2491 | 1.0749
283.25 K, 1008.9 kPa, x1 = 0.2491 | 1.0088
283.25 K, 2012.2 kPa, x1 = 0.2491 | 1.0186
283.44 K, 4710.8 kPa, x1 = 0.0505 | 1.06985
289.87 K, 5632 kPa, x1 = 0.0505 | 1.09119
292.67 K, 6086.3 kPa, x1 = 0.0505 | 1.10382
293.27 K, 1007.1 kPa, x1 = 0.2491 | 1.0085
293.27 K, 2005.7 kPa, x1 = 0.2491 | 1.0177
293.27 K, 3006.2 kPa, x1 = 0.2491 | 1.0279
293.27 K, 4006.6 kPa, x1 = 0.2491 | 1.0394
293.27 K, 4993.4 kPa, x1 = 0.2491 | 1.0523
293.27 K, 5847.6 kPa, x1 = 0.2491 | 1.0651
293.27 K, 6499.2 kPa, x1 = 0.2491 | 1.0761
293.28 K, 3999.6 kPa, x1 = 0.2491 | 1.0393
293.28 K, 5994.6 kPa, x1 = 0.2491 | 1.0674
294.27 K, 6419.2 kPa, x1 = 0.0505 | 1.11591
313.26 K, 2602.6 kPa, x1 = 0.0505 | 1.02461
313.26 K, 3052 kPa, x1 = 0.0505 | 1.02963
313.26 K, 3592.1 kPa, x1 = 0.0505 | 1.03607
313.28 K, 7083.6 kPa, x1 = 0.0505 | 1.0967
313.29 K, 4089.6 kPa, x1 = 0.0505 | 1.04247
313.3 K, 4550.7 kPa, x1 = 0.0505 | 1.04884
313.3 K, 5083 kPa, x1 = 0.0505 | 1.05688
313.3 K, 5566.4 kPa, x1 = 0.0505 | 1.06488
313.3 K, 6028.4 kPa, x1 = 0.0505 | 1.07333
313.3 K, 6550 kPa, x1 = 0.0505 | 1.08408
313.3 K, 7027.1 kPa, x1 = 0.0505 | 1.09523
